From patent US20250114374A1, “BCL-2 INHIBITORS” (Newave Pharmaceutical Inc., priority 2021, published 2025)
Where two headings read alike, the source gives them in different places.

Tested on: RS4; 11 with G101V mutation
Test: In vitro anti-proliferation assay (ATPlite luminescence) in BCL-2-dependent ALL cell line RS4;11 with G101V mutation
Type: cell-based
Settings: read-out: RS411-G101V IC50
Outline: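 RS4;11 G101V cells at about 1×10^4 per well were exposed to a range of compound concentrations for about 72 h in medium with 10% FBS. Cellular ATP was measured by ATPlite luminescence after lysis, and IC50 was derived from the dose-response.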

[1] = cellular anti-proliferative IC50, about 72 hours, medium with 10% FBS, ATPlite

`CC(C)c1ccccc1[C@@H]1CN(Cc2ccc(F)c(F)c2)CCN1C1CC2(CCN(c3ccc(C(=O)NS(=O)(=O)c4cc5c(c([N+](=O)[O-])c4)N[C@H](C4CCOCC4)CO5)c(N4c5cc6cc[nH]c6nc5O[C@H]5COCC[C@@H]54)c3)CC2)C1` [Example 180, 4-{2-[(2R)-4-[(3,4-difluorophenyl)methyl]-2-(2-isopropylphenyl)piperazin-1-yl]-7-azaspiro[3.5]nonan-7-yl}-2-[(3R,8S)-2,5-dioxa-9,15,17-triazatetracyclo[8.7.0.0^{3,8}.0^{12,16}]heptadeca-1(10),11,13,16-tetraen-9-yl]-N-[(3R)-5-nitro-3-(oxan-4-yl)-3,4-dihydro-2H-1,4-benzoxazin-7-ylsulfonyl]benzamide] was tested, and the IC50 [1] was 7.5 nM.

With `CC(C)Oc1ccccc1[C@@H]1CN(Cc2ccc(F)c(F)c2)CCN1C1CC2(CCN(c3ccc(C(=O)NS(=O)(=O)c4cc5c(c([N+](=O)[O-])c4)N[C@H](C4CCOCC4)CO5)c(N4c5cc6cc[nH]c6nc5O[C@H]5COCC[C@@H]54)c3)CC2)C1` [Example 181, 4-(2-((R)-4-(3,4-difluorobenzyl)-2-(2-isopropoxyphenyl)piperazin-1-yl)-7-azaspiro[3.5]nonan-7-yl)-N-(((R)-5-nitro-3-(tetrahydro-2H-pyran-4-yl)-3,4-dihydro-2H-benzo[b][1,4]oxazin-7-yl)sulfonyl)-2-((5aS,9aR)-6,7,9,9a-tetrahydro-1H-pyrano[3,4-b]pyrrolo[3′,2′:5,6]pyrido[3,2-e][1,4]oxazin-5(5aH)-yl)benzamide] the IC50 (Homo sapiens, RS4-11, 72 h) was 9.6 nM.

For `CC(C)Oc1ccccc1[C@@H]1CN(C2CCOCC2)CCN1C1CC2(CCN(c3ccc(C(=O)NS(=O)(=O)c4cc5c(c([N+](=O)[O-])c4)N[C@H](C4CCOCC4)CO5)c(N4c5cc6cc[nH]c6nc5O[C@H]5COCC[C@@H]54)c3)CC2)C1` [Example 182, 4-(2-((R)-2-(2-isopropoxyphenyl)-4-(tetrahydro-2H-pyran-4-yl)piperazin-1-yl)-7-azaspiro[3.5]nonan-7-yl)-N-(((R)-5-nitro-3-(tetrahydro-2H-pyran-4-yl)-3,4-dihydro-2H-benzo[b][1,4]oxazin-7-yl)sulfonyl)-2-((5aS,9aR)-6,7,9,9a-tetrahydro-1H-pyrano[3,4-b]pyrrolo[3′,2′:5,6]pyrido[3,2-e][1,4]oxazin-5(5aH)-yl)benzamide], the IC50 (Homo sapiens, RS4-11, 72 h) was 58.1 nM.

With `Cc1ccccc1[C@@H]1CN(C2CCOCC2)CCN1C1CC2(CCN(c3ccc(C(=O)NS(=O)(=O)c4cc5c(c([N+](=O)[O-])c4)N[C@H](C4CCOCC4)CO5)c(N4c5cc6cc[nH]c6nc5O[C@H]5COCC[C@@H]54)c3)CC2)C1` [Example 183, N—(((R)-5-nitro-3-(tetrahydro-2H-pyran-4-yl)-3,4-dihydro-2H-benzo[b][1,4]oxazin-7-yl)sulfonyl)-2-((5aS,9aR)-6,7,9,9a-tetrahydro-1H-pyrano[3,4-b]pyrrolo[3′,2′:5,6]pyrido[3,2-e][1,4]oxazin-5(5aH)-yl)-4-(2-((R)-4-(tetrahydro-2H-pyran-4-yl)-2-(o-tolyl)piperazin-1-yl)-7-azaspiro[3.5]nonan-7-yl)benzamide] the IC50 (Homo sapiens, RS4-11, 72 h) was 73.3 nM.

With `Cc1ccccc1[C@@H]1CN(CC2CCOCC2)CCN1C1CC2(CCN(c3ccc(C(=O)NS(=O)(=O)c4cc5c(c([N+](=O)[O-])c4)N[C@H](C4CCOCC4)CO5)c(N4c5cc6cc[nH]c6nc5O[C@H]5COCC[C@@H]54)c3)CC2)C1` [Example 184, 2-[(3R,8S)-2,5-dioxa-9,15,17-triazatetracyclo[8.7.0.0^{3,8}.0^{12,16}]heptadeca-1(10),11,13,16-tetraen-9-yl]-4-{2-[(2R)-2-(2-methylphenyl)-4-(oxan-4-ylmethyl)piperazin-1-yl]-7-azaspiro[3.5]nonan-7-yl}-N-[(3R)-5-nitro-3-(oxan-4-yl)-3,4-dihydro-2H-1,4-benzoxazin-7-ylsulfonyl]benzamide] the IC50 [1] was 40.6 nM.

For `CC(C)Oc1ccccc1[C@H]1CN(Cc2ccc(F)c(F)c2)CCN1C1CC2(CCN(c3ccc(C(=O)NS(=O)(=O)c4ccc(NCC5CCOCC5)c([N+](=O)[O-])c4)c(N4c5cc6cc[nH]c6nc5O[C@H]5COCC[C@@H]54)c3)CC2)C1` [Example 185, 4-{2-[(2S)-4-[(3,4-difluorophenyl)methyl]-2-(2-isopropoxyphenyl)piperazin-1-yl]-7-azaspiro[3.5]nonan-7-yl}-2-[(3R,8S)-2,5-dioxa-9,15,17-triazatetracyclo[8.7.0.0^{3,8}.0^{12,16}]heptadeca-1(10),11,13,16-tetraen-9-yl]-N-{3-nitro-4-[(oxan-4-ylmethyl)amino]benzenesulfonyl}benzamide], the IC50 [1] was 112 nM.

In the case of `CC(C)Oc1ccccc1[C@@H]1CN(Cc2ccc(F)c(F)c2)CCN1C1CC2(CCN(c3ccc(C(=O)NS(=O)(=O)c4ccc(NCC5CCOCC5)c([N+](=O)[O-])c4)c(N4c5cc6cc[nH]c6nc5O[C@H]5COCC[C@@H]54)c3)CC2)C1` [Example 186, 4-{2-[(2R)-4-[(3,4-difluorophenyl)methyl]-2-(2-isopropoxyphenyl)piperazin-1-yl]-7-azaspiro[3.5]nonan-7-yl}-2-[(3R,8S)-2,5-dioxa-9,15,17-triazatetracyclo[8.7.0.0^{3,8}.0^{12,16}]heptadeca-1(10),11,13,16-tetraen-9-yl]-N-{3-nitro-4-[(oxan-4-ylmethyl)amino]benzenesulfonyl}benzamide], the IC50 [1] is reported as 10.6 nM.

`COc1cc(CN2CCN(C3CC4(CCN(c5ccc(C(=O)NS(=O)(=O)c6cc7c(c([N+](=O)[O-])c6)N[C@H](C6CCOCC6)CO7)c(N6c7cc8cc[nH]c8nc7O[C@H]7COCC[C@@H]76)c5)CC4)C3)[C@H](c3ccccc3C)C2)cnc1N1CCOC[C@@H]1C` [Example 187, 2-[(3R,8S)-2,5-dioxa-9,15,17-triazatetracyclo[8.7.0.0^{3,8}.0^{12,16}]heptadeca-1(10),11,13,16-tetraen-9-yl]-4-{2-[(2R)-4-({5-methoxy-6-[(3S)-3-methylmorpholin-4-yl]pyridin-3-yl}methyl)-2-(2-methylphenyl)piperazin-1-yl]-7-azaspiro[3.5]nonan-7-yl}-N-[(3R)-5-nitro-3-(oxan-4-yl)-3,4-dihydro-2H-1,4-benzoxazin-7-ylsulfonyl]benzamide] was tested, and the IC50 [1] was 2.04 nM.

`COc1cc(CN2CCN(C3CC4(CCN(c5ccc(C(=O)NS(=O)(=O)c6cc7c(c([N+](=O)[O-])c6)N[C@H](C6CCOCC6)CO7)c(N6c7cc8cc[nH]c8nc7O[C@H]7COCC[C@@H]76)c5)CC4)C3)[C@H](c3ccccc3C)C2)cnc1N1CCOC[C@H]1C` [Example 188, 2-[(3R,8S)-2,5-dioxa-9,15,17-triazatetracyclo[8.7.0.0^{3,8}.0^{12,16}]heptadeca-1(10),11,13,16-tetraen-9-yl]-4-{2-[(2R)-4-({5-methoxy-6-[(3R)-3-methylmorpholin-4-yl]pyridin-3-yl}methyl)-2-(2-methylphenyl)piperazin-1-yl]-7-azaspiro[3.5]nonan-7-yl}-N-[(3R)-5-nitro-3-(oxan-4-yl)-3,4-dihydro-2H-1,4-benzoxazin-7-ylsulfonyl]benzamide] showed an IC50 [1] of 11.1 nM.

Work on `Cc1ccccc1[C@@H]1CN(Cc2cnc(N3CCOC[C@@H]3C)c(F)c2)CCN1C1CC2(CCN(c3ccc(C(=O)NS(=O)(=O)c4cc5c(c([N+](=O)[O-])c4)N[C@H](C4CCOCC4)CO5)c(N4c5cc6cc[nH]c6nc5O[C@H]5COCC[C@@H]54)c3)CC2)C1` [Example 189, 2-[(3R,8S)-2,5-dioxa-9,15,17-triazatetracyclo[8.7.0.0^{3,8}.0^{12,16}]heptadeca-1(10),11,13,16-tetraen-9-yl]-4-{2-[(2R)-4-({5-fluoro-6-[(3S)-3-methylmorpholin-4-yl]pyridin-3-yl}methyl)-2-(2-methylphenyl)piperazin-1-yl]-7-azaspiro[3.5]nonan-7-yl}-N-[(3R)-5-nitro-3-(oxan-4-yl)-3,4-dihydro-2H-1,4-benzoxazin-7-ylsulfonyl]benzamide] yielded an IC50 [1] of 36.8 nM.

With `Cc1ccccc1[C@@H]1CN(Cc2cnc(N3CCOC[C@@H]3C)c(OC(C)C)c2)CCN1C1CC2(CCN(c3ccc(C(=O)NS(=O)(=O)c4cc5c(c([N+](=O)[O-])c4)N[C@H](C4CCOCC4)CO5)c(N4c5cc6cc[nH]c6nc5O[C@H]5COCC[C@@H]54)c3)CC2)C1` [Example 190, 4-(2-((R)-4-((5-isopropoxy-6-((S)-3-methylmorpholino)pyridin-3-yl)methyl)-2-(o-tolyl)piperazin-1-yl)-7-azaspiro[3.5]nonan-7-yl)-N-(((R)-5-nitro-3-(tetrahydro-2H-pyran-4-yl)-3,4-dihydro-2H-benzo[b][1,4]oxazin-7-yl)sulfonyl)-2-((5aS,9aR)-6,7,9,9a-tetrahydro-1H-pyrano[3,4-b]pyrrolo[3′,2′:5,6]pyrido[3,2-e][1,4]oxazin-5(5aH)-yl)benzamide] the IC50 (Homo sapiens, RS4-11, 72 h) was 11.1 nM.

For `Cc1cc2c(CN3CCN(C4CC5(CCN(c6ccc(C(=O)NS(=O)(=O)c7cc8c(c([N+](=O)[O-])c7)N[C@H](C7CCOCC7)CO8)c(N7c8cc9cc[nH]c9nc8O[C@H]8COCC[C@@H]87)c6)CC5)C4)[C@H](c4ccccc4C)C3)cnc(N3CCOC[C@@H]3C)c2o1` [Example 191, 2-[(3R,8S)-2,5-dioxa-9,15,17-triazatetracyclo[8.7.0.0^{3,8}.0^{12,16}]heptadeca-1(10),11,13,16-tetraen-9-yl]-4-{2-[(2R)-4-({2-methyl-7-[(3S)-3-methylmorpholin-4-yl]furo[2,3-c]pyridin-4-yl}methyl)-2-(2-methylphenyl)piperazin-1-yl]-7-azaspiro[3.5]nonan-7-yl}-N-[(3R)-5-nitro-3-(oxan-4-yl)-3,4-dihydro-2H-1,4-benzoxazin-7-ylsulfonyl]benzamide], the IC50 [1] was 14.2 nM.
